Consider five molecules from patent US20050058696A1, “Methods and compositions for the treatment of pain and other alpha 2 adrenergic-mediated conditions” (Allergan, Inc., priority 2003, published 2005).

In data set [1] the test system is sulprostone-induced allodynic mice. The data set is described as follows: Sulprostone-induced allodynia mouse model, paint brush stimulation pain score.
Data set [2] deals with Chung model of allodynic rats. The conditions noted are these: for analgesia (reversal of tactile allodynia): 30 minutes after administration. The text has this:
A model for chronic pain (in particular peripheral neuropathy) involves the surgical ligation of the L5 (and optionally the L6) spinal nerves on one side in experimental animals. Rats recovering from the surgery gain weight and display a level of general activity similar to that of normal rats. However, these rats develop abnormalities of the foot, wherein the hindpaw is moderately everted and the toes are held together. More importantly, the hindpaw on the side affected by the surgery appears to become sensitive to pain from low-threshold mechanical stimuli, such as that producing a faint sensation of touch in a human, within about 1 week following surgery. This sensitivity to normally non-painful touch is called “tactile allodynia” and lasts for at least two months. The response includes lifting the affected hindpaw to escape from the stimulus, licking the paw and holding it in the air for many seconds. None of these responses is normally seen in the control group.
Rats are anesthetized before surgery. The surgical site is shaved and prepared either with betadine or novacaine. Incision is made from the thoracic vertebra X111 down toward the sacrum. Muscle tissue is separated from the spinal vertebra (left side) at the L4-S2 levels. The L6 vertebra is located and the transverse process is carefully removed with a small rongeur to expose the L4-L6 spinal nerves. The L5 and L6 spinal nerves are isolated and tightly ligated with 6-0 silk thread. The same procedure is done on the right side as a control, except no ligation of the spinal nerves is performed.
A complete hemostasis is confirmed, then the wounds are sutured. A small amount of antibiotic ointment is applied to the incised area, and the rat is transferred to the recovery plastic cage under a regulated heat-temperature lamp. […]
In the Chung rat model, tactile allodynia is measured prior to and 30 minutes after drug administration using von Frey hairs that are a series of fine hairs with incremental differences in stiffness. […]

A further data set has as its system male Sprague-Dawley rats. The conditions noted are these: for sedation: graded 30 minutes after administration. The method, then: To test sedation, six male Sprague-Dawley rats are given various doses of a clonidine intrathecal injection. Sedation is graded 30 minutes following administration of the drug by monitoring locomotor skills as follows. Rats are placed in a dark covered chamber and a digicom analyzer (Omnitech Electronic) quantitates their exploratory behavior for a five-minute period. The machine records each time the rat interrupts an array of 32 photoelectric beams in the X and Y orientation, and quantifies the difference in behavior as compared to control animals given saline instead of clonidine.

Data set [3] relates to intraocular pressure of male New Zealand rabbits. Briefly: Normotensive intraocular pressure in rabbits after topical instillation (pneumatonometer). In kind it is in vivo, rabbit. The method, then: Male New Zealand rabbits are used to evaluate drug effects on normotensive IOP measurements. The rabbits are carefully handled so as to minimize excitement. They should be picked up by the nape of the neck, with their hindlegs supported by the other hand. After removing the rabbit from its cage, approximately 25 ul of dilute OphtheticR (0.05%) topical anesthesia is administered to each eye. An initial IOP determination is made in both eyes. Rabbits with 3 mmHg or greater difference in IOP between right and left eyes are replaced at this time.
Immediately following the time zero (T=0) reading in both eyes, one eye of each experimental rabbit is instilled with an ophthalmic formulation of 0.1% (w/w) brimonidine tartrate onto the cornea of the randomly selected test eye. […] The other eye is given the vehicle containing no drug. The ophthalmic formulations comprise 50 ppm Purite®(stabilized chlorine dioxide), 0.5% carboxymethylcellulose, 0.6% (w/w) borate buffer (pH 7.7) and small amounts of salts (NaCl, KCl, CaCl2, MgCl2). Intraocular pressure of both treated (ipsalateral)and untreated (contralateral) eyes is measured at the indicated time intervals for seven hours. Pressure readings utilize a Model 30 Classic™ Pneumatonometer as the measuring and recording instrument. It measures intraocular pressure (IOP) non-invasively through applanation tonometry.

SMILES strings stand for the structures. Where two headings read alike, the source gives them in different places.

As for `CN(C)CCC=C1c2ccccc2CCc2ccccc21` [amitriplylene, amitriptylene], the “reduction in the dosage necessary to achieve maximal analgesia” value in data set [1] (amitriptylene intrathecal with 30 ug/kg IP 5-methylurapadil versus with saline) is “approximately three”.

On to `Clc1cccc(Cl)c1N=C1NCCN1` [clonidine], for which the “analgesia (reversal of tactile allodynia)” value in data set [2] (intrathecal dose of 0.1 μg) is reported as “no analgesia”; in data set [2] (intrathecal dose of 1.0 μg) it was “maximal analgesia”. The “analgesic activity, dose-dependent” value in data set [2] (rats, intrathecal) was “analgesic”; in data set [1] (mice, intrathecal), “analgesic”. In addition, the values for the sedation result in the data set with male Sprague-Dawley rats (intrathecal dose of 3.0 μg) and in the data set with male Sprague-Dawley rats (intrathecal dose of 10 μg) were “mildly sedating” and “maximal sedation”, respectively. Further, the “separation between analgesia and sedation” value in the data set on male Sprague-Dawley rats (rats, intrathecal clonidine alone) was 3-10 fold. For the same molecule, the “shift of the effective analgesic dose lower versus clonidine alone” value in data set [1] (5-methyl urapidil 30 μg/kg intraperitoneal 5 minutes before clonidine) came to 10 fold. Besides, the pain score in data set [1] (clonidine 0.03 microgram intrathecal, prazosin given 15 minutes before) came to 13.3±0.9; in data set [1] (clonidine 0.1 microgram intrathecal, prazosin given 15 minutes before), 4.8±0.8; in data set [1] (clonidine 0.4 microgram intrathecal, prazosin given 15 minutes before) it was 4.8±0.6. In data set [1] (clonidine 0.1 microgram intrathecal in the absence of prazosin), the analgesia entry was “not analgesic”. Further, the “analgesia compared with intraperitoneal injection of the alpha 1 antagonist” value in data set [1] (clonidine (various doses) and 5-methylurapidil 1 microgram coadministered intrathecally) is reported as “substantially similar”. Besides, the “therapeutic window between pain and sedation” value in data set [1] (clonidine alone) is 3-10 fold; in data set [1] (clonidine co-administered with alpha 1 antagonist (5-methyl urapidil 30 μg/kg i.p.)), 30-100 fold. Besides, the “decrease in the EC50 for clonidine analgesia versus i.t. clonidine alone” value in data set [1] (coadministration of prazosin 100 ng/kg i.p.) was “four”.

On to `Brc1c(NC2=NCCN2)ccc2nccnc12` [brimonidine], for which the intraocular pressure entry in data set [3] (0.1% brimonidine alone (FIG. 4B)) is on record as “pronounced increase in intraocular pressure within the first 30 minutes, followed by a lowering of intraocular pressure thereafter”. Besides, the “intraocular pressure, difference from brimonidine alone” value in data set [3] (0.1% brimonidine and 0.001% prazosin (FIG. 4C)) is “Little difference”. Also, in data set [3] (0.1% brimonidine and 0.003% prazosine (FIG. 4D)), the initial intraocular pressure result is listed as “only a very small increase in initial intraocular pressure”.

For the molecule `COc1cc2nc(N3CCN(C(=O)c4ccco4)CC3)nc(N)c2cc1OC` [prazosin], the “intraocular pressure of treated eye compared to untreated eye” value in data set [3] (35 microliters 0.003% prazosin alone (FIG. 4A)) is given as “small initial drop in intraocular pressure compared to the untreated eye, followed by a gradual increase in pressure”.

On to `CS(=O)(=O)NC(=O)CCC/C=C\C[C@H]1C(=O)C[C@@H](O)[C@@H]1/C=C/[C@@H](O)COc1ccccc1` [sulprostone], for which the pain score in data set [1] (sulprostone 200 ng intrathecal alone, 16-point scale) is 12-13.
